Assay results as given in patent US10870647B2, “Imidazopyridine derivative, method for preparing same, and pharmaceutical composition containing same as active ingredient for preventing or treating cancer” (DAEGU-GYEONGBUK MEDICAL INNOVATION FOUNDATION, priority 2016, dated 2020).

Key:
Assay in all cases: Kinase selectivity, scanMAX Kinase assay panel (DiscoverX), % control at 1 uM
Assay type in all cases: binding
[1] = biological target: T1, scanMAX Kinase assay panel (Homo sapiens, UniProt Q16566); settings: CAMK4; 1 uM; read-out: Percent Control (%)
T1 construct: purchased DiscoverX
T1 sequence (Q16566 1-473): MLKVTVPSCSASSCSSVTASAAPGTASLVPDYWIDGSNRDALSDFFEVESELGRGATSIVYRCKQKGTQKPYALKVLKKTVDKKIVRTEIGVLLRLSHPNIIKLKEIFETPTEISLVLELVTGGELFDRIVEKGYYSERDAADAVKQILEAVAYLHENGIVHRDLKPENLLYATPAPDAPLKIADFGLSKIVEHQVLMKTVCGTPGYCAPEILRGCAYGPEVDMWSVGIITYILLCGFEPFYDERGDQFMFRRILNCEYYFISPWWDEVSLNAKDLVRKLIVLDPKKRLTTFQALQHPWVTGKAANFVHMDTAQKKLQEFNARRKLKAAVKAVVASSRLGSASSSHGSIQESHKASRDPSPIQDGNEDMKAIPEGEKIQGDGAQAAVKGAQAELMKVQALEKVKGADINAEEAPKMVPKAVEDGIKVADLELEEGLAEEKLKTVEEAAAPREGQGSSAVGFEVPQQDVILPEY
Method: (§1) The following experiment was performed to evaluate the inhibitory activity of the compound of the present invention on more enzymes.
(§2) Particularly, among the compounds of the present invention, the compounds of Example 1, Example 12 and Example 78 were selected and assigned to DiscoverX to measure the kinase selectivity. The experiment was performed by using scanMAX™ Kinase assay panel.
(§3) At this time, the concentration of the drug to be treated to the enzyme was adjusted to 1 uM in DMSO, and the control percentage (% control) was determined according to the following Equation 1. [Example Compound−Positive Control/Negative Control−Positive Control]×100 [Equation 1]
(§4) The enzyme selectivity of the compound of the present invention was judged to be active for the enzyme if the % control was <35 (i.e. less than 35%) for each enzyme.

[2] = biological target: T2, scanMAX Kinase assay panel (Homo sapiens, UniProt P11309); settings: PIM1; 1 uM; read-out: Percent Control (%)
T2 construct: purchased DiscoverX
T2 sequence (P11309 whole entry): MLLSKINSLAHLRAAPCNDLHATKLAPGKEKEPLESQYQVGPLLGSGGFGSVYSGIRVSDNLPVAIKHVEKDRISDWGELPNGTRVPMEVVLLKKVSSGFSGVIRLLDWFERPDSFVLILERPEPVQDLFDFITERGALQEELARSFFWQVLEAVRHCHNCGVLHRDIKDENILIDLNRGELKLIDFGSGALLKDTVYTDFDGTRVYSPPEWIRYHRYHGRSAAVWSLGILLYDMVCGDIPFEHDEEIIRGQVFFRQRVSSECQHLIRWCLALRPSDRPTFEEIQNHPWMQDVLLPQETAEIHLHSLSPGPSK
Method: as §1, §2, §3, §4

[3] = biological target: T3, scanMAX Kinase assay panel (Homo sapiens, UniProt Q8WTQ7); settings: GRK7; 1 uM; read-out: Percent Control (%)
T3 construct: purchased DiscoverX
T3 sequence (Q8WTQ7 1-553): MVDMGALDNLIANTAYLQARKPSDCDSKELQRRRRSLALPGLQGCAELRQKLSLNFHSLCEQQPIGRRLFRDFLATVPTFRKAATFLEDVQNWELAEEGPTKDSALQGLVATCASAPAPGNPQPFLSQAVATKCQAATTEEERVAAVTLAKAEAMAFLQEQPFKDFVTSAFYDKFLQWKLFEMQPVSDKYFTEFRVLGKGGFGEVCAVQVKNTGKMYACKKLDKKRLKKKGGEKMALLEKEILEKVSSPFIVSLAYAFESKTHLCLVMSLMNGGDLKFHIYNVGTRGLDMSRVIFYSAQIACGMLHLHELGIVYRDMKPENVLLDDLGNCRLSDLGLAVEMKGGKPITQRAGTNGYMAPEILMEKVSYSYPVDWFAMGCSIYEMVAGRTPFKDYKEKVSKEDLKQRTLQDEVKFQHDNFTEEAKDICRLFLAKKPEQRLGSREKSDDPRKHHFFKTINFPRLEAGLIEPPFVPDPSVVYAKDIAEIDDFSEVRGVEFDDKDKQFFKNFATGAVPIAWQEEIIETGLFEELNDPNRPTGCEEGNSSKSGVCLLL
Method: as §1, §2, §3, §4

[4] = biological target: T4, scanMAX Kinase assay panel (Homo sapiens, UniProt Q15208); settings: NDR1; 1 uM; read-out: Percent Control (%)
T4 construct: purchased DiscoverX
T4 sequence (Q15208 whole entry): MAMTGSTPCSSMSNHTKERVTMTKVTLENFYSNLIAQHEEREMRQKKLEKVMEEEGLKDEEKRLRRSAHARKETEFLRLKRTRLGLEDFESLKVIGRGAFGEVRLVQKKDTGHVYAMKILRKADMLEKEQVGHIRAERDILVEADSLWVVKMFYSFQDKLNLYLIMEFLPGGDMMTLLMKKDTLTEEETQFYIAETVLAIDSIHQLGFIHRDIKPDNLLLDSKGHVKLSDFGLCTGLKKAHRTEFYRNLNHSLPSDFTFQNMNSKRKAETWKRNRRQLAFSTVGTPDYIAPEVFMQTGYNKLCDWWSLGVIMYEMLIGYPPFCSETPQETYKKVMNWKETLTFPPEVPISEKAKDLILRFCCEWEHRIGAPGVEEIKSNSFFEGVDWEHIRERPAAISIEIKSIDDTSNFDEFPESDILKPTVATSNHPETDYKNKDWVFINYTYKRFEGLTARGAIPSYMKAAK
Method: as §1, §2, §3, §4

[5] = biological target: T5, scanMAX Kinase assay panel (Homo sapiens, UniProt Q9UM73); settings: ALK; 1 uM; read-out: Percent Control (%)
T5 construct: purchased DiscoverX
T5 sequence (Q9UM73 19-1620): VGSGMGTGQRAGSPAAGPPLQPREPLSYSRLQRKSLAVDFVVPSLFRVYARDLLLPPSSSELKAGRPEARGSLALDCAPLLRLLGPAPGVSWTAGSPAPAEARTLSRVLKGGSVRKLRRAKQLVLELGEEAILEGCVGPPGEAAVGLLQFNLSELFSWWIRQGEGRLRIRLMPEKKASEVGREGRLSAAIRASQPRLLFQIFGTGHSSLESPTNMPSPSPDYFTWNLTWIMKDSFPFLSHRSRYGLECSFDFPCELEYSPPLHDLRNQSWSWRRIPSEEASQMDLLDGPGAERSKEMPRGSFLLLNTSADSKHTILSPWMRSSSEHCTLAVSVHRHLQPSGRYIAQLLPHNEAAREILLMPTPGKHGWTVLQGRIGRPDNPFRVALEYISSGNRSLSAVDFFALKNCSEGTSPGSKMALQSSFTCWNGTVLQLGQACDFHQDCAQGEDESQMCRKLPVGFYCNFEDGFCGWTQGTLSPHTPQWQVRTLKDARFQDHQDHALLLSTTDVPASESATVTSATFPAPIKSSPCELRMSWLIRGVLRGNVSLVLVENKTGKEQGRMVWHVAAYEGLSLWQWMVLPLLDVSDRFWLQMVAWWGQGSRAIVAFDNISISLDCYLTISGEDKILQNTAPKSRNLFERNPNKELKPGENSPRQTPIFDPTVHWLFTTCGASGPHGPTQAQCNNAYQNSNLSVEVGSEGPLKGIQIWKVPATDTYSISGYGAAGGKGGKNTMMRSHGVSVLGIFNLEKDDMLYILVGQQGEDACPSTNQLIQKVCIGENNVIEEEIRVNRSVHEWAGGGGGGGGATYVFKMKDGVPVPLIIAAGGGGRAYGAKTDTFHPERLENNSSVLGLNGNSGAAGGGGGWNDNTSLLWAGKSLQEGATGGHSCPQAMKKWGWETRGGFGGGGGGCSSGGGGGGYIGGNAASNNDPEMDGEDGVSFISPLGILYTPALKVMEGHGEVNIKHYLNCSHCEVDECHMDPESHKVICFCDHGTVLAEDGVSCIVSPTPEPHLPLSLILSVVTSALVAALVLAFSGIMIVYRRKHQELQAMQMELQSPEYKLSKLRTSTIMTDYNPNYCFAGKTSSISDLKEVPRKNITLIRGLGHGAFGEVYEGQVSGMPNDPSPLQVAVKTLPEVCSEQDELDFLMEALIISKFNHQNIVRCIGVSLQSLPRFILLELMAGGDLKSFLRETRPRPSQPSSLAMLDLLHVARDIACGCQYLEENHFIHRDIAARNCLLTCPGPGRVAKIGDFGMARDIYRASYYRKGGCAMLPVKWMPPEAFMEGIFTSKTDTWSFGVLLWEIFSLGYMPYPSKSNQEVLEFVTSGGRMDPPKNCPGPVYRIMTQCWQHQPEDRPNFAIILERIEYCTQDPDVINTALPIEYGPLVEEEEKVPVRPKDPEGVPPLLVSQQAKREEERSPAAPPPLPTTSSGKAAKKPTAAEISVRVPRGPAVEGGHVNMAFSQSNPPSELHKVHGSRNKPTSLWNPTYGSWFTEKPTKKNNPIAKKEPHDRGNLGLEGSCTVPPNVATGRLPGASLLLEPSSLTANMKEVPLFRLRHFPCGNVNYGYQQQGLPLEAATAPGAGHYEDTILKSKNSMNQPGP
Method: as §1, §2, §3, §4

[6] = biological target: T6, scanMAX Kinase assay panel (Homo sapiens, UniProt O75716); settings: STK16; 1 uM; read-out: Percent Control (%)
T6 construct: purchased DiscoverX
T6 sequence (O75716 whole entry): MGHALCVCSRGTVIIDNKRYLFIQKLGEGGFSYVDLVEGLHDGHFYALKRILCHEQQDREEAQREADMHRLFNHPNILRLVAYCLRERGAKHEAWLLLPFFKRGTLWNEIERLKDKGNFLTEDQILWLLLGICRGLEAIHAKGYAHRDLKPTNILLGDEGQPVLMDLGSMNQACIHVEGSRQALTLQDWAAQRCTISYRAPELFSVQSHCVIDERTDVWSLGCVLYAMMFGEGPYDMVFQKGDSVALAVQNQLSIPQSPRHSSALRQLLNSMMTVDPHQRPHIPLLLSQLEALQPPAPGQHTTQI
Method: as §1, §2, §3, §4

[7] = biological target: T7, scanMAX Kinase assay panel (Homo sapiens, UniProt Q07912); settings: TNK2; 1 uM; read-out: Percent Control (%)
T7 construct: purchased DiscoverX
T7 sequence (Q07912 whole entry): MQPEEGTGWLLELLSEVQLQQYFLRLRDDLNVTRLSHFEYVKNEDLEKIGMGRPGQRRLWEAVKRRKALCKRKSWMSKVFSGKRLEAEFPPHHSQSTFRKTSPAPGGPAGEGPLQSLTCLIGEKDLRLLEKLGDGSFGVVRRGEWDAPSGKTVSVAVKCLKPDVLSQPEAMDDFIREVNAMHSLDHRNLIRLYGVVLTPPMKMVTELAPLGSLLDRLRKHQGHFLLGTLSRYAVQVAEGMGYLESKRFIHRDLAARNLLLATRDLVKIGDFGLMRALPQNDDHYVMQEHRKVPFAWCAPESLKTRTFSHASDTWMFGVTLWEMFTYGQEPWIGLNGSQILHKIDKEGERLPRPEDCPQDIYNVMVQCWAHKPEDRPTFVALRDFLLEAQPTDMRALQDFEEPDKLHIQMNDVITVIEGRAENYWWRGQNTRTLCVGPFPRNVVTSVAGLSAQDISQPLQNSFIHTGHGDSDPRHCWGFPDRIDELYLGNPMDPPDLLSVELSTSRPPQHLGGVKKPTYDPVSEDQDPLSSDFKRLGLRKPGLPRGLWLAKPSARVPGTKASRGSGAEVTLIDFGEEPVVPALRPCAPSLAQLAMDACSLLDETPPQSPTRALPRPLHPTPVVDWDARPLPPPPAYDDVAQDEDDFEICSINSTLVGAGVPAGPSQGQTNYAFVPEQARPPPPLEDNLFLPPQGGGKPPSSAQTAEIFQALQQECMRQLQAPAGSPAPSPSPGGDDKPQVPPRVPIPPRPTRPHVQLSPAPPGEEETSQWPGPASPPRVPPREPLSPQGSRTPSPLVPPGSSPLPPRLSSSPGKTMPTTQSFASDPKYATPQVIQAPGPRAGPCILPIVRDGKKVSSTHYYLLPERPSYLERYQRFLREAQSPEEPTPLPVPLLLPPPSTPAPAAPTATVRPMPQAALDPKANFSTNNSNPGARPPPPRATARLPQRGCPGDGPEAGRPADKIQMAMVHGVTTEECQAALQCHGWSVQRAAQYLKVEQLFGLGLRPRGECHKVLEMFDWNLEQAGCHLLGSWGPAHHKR
Method: as §1, §2, §3, §4

[8] = biological target: T8, scanMAX Kinase assay panel (Homo sapiens, UniProt Q9NWZ3); settings: IRAK4; 1 uM; read-out: Percent Control (%)
T8 construct: purchased DiscoverX
T8 sequence (Q9NWZ3 1-460): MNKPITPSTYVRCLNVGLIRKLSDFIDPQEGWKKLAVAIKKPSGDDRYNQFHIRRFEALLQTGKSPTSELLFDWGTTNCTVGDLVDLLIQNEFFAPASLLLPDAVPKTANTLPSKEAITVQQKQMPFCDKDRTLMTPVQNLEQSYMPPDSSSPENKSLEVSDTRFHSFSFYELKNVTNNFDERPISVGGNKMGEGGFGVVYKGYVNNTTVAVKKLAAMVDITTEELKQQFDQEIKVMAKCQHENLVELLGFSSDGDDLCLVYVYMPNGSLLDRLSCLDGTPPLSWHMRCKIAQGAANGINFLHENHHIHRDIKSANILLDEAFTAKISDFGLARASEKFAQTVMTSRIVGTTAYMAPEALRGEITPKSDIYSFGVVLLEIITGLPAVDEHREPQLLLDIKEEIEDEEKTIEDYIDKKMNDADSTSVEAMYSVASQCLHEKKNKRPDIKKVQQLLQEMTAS
Method: as §1, §2, §3, §4

[9] = biological target: T9, scanMAX Kinase assay panel (Homo sapiens, UniProt Q9HBY8); settings: SGK2; 1 uM; read-out: Percent Control (%)
T9 construct: purchased DiscoverX
T9 sequence (Q9HBY8 1-367): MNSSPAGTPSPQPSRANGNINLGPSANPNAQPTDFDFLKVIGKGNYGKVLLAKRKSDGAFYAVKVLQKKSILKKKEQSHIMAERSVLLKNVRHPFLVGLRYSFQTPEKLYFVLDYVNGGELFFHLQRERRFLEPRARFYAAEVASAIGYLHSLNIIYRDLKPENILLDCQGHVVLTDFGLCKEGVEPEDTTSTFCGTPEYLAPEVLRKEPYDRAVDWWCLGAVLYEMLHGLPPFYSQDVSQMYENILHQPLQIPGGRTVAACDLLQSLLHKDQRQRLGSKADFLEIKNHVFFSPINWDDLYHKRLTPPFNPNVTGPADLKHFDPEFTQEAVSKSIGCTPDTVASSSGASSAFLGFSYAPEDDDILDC
Method: as §1, §2, §3, §4

[10] = biological target: T10, scanMAX Kinase assay panel (Homo sapiens, UniProt Q13153); settings: PAK1; 1 uM; read-out: Percent Control (%)
T10 construct: purchased DiscoverX
T10 sequence (Q13153 whole entry): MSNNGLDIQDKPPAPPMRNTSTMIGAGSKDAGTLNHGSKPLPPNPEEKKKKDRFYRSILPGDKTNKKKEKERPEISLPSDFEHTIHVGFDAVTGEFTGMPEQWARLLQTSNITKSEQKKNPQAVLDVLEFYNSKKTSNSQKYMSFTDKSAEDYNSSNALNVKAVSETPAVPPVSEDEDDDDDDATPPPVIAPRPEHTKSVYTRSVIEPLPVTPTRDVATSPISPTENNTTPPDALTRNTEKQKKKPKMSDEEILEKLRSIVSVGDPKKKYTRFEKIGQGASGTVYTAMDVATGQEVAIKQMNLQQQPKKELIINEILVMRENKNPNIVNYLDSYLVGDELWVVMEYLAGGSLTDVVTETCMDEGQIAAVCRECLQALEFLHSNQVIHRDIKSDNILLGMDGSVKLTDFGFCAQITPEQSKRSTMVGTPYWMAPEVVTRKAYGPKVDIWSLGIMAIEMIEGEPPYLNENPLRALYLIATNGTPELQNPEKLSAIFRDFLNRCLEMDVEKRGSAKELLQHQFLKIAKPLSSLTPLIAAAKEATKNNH
Method: as §1, §2, §3, §4

[11] = biological target: T11, scanMAX Kinase assay panel (Homo sapiens, UniProt P12931); settings: SRC; 1 uM; read-out: Percent Control (%)
T11 construct: purchased DiscoverX
T11 sequence (P12931 whole entry): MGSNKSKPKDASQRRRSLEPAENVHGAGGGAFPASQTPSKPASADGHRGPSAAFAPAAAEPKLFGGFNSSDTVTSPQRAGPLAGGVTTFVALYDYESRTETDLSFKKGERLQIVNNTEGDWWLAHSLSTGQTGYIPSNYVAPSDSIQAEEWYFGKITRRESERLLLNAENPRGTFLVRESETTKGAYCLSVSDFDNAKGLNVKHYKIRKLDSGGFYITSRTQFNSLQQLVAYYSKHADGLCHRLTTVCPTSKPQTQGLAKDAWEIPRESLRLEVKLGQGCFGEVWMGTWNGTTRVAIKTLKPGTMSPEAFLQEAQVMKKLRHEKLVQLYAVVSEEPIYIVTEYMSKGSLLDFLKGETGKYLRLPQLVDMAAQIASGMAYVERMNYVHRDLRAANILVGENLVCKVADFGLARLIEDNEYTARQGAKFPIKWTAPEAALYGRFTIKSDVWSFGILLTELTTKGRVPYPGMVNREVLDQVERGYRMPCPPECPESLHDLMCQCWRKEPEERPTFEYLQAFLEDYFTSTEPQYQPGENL
Method: as §1, §2, §3, §4

SMILES	remaining binding at 1 µM [1] [%]	remaining binding at 1 µM [2] [%]	remaining binding at 1 µM [3] [%]	remaining binding at 1 µM [4] [%]	remaining binding at 1 µM [5] [%]	remaining binding at 1 µM [6] [%]	remaining binding at 1 µM [7] [%]	remaining binding at 1 µM [8] [%]	remaining binding at 1 µM [9] [%]	remaining binding at 1 µM [10] [%]	remaining binding at 1 µM [11] [%]
Cc1ccc(NC(=O)C2(C(=O)Nc3ccc(F)cc3)CC2)cc1C#Cc1cnc2c(Nc3cnn(C(C)C)c3)cccn12 [Example 78]	100	100	92	83	100	99	100	100	100	100	73
Cc1cn(-c2cc(NC(=O)c3ccc(C)c(C#Cc4cnc5c(Nc6cnn(C)c6)cccn45)c3)cc(C(F)(F)F)c2)cn1 [Example 12, 4-methyl-N-(3-(4-methyl-1H-imidazol-1-yl)-5-(trifluoromethyl)phenyl)-3-((8-((1-methyl-1H-pyrazol-4-yl)amino)imidazo[1,2-a]pyridin-3-yl)ethynyl)benzamide]	87	92	100	98	100	70	28	81	100	87	1
Cc1ccc(C(=O)Nc2ccc(CN3CCN(C)CC3)c(C(F)(F)F)c2)cc1C#Cc1cnc2c(Nc3cnn(C)c3)cccn12 [Example 1, 4-methyl-3-((8-((1-methyl-1H-pyrazol-4-yl)amino)imidazo[1,2-a]pyridin-3-yl)ethynyl)-N-(4-((4-methylpiperazin-1-yl)methyl)-3-(trifluoromethyl)phenyl)benzamide]	99	82	81	56	70	38	2	22	84	89	0
